Laboratory results as given in publication PMC10375191, “Transformable Neuropeptide Prodrug with Tumor Microenvironment Responsiveness for Tumor Growth and Metastasis Inhibition of Triple‐Negative Breast Cancer” (Advanced Science, 2023).
Starred links: 1 amine or outer side, 2 acyl side, 3 side chain; linkers in the order of their positions; H or OH if unused. Residues, ends and D or L forms follow the SMILES beside them. *: point of attachment. Doxorubicin(3'-N) = COc1cccc2c1C(=O)c1c(O)c3c(c(O)c1C2=O)C[C@@](O)(C(=O)CO)C[C@@H]3O[C@H]1C[C@H](N*)[C@H](O)[C@H](C)O1; Suc = O=C(CCC(=O)[*:2])[*:1]

Legend:
[1] = system: MDA‐MB‐231 xenograft model; test: In vivo antitumor evaluation, MDA-MB-231 xenograft; design: species or system mouse; conditions: MDA-MB-231 tumor-bearing nude mice; DOX-P18 up to 100 mg kg^−1 (20 mg kg^−1 DOX); DOX at 10 and 20 mg kg^−1
From the text: (§1) All the animal experimental procedures were recognized and approved by the Regional Ethics Committee for Animal Experiments at Ningbo University, China (Permit NO. SYXK (Zhe) 2019‐0005). The triple‐negative breast cancer (TNBC) xenograft tumors were established on female BALB/c nude mice (≈15 g) by subcutaneous injection of MDA‐MB‐231 cells (5 × 10^6 cells in each mouse). TNBC metastasis models were constructed by injecting MDA‐MB‐231‐luc cells (1 × 10^5 cells in each mouse) through the tail vein to female BALB/c nude mice. The day that MDA‐MB‐231‐luc was injected was set as D0. In vivo imaging system (IVIS) (Lumina XRMS Ш, PerkinElmer, USA) was utilized to identify the tumor metastasis at D12.
When the tumor volume of BALB/c mice reached ≈70 mm^3 (V = L × W × W/2), the tumor‐bearing mice were randomly divided into seven groups (n = 5 for each group). […] 100 µL drug was injected intravenously through the tail vein every other day for a total of five times. The day that the first injection was given was set as D0. Tumor size and mouse weight were measured every 2 days from the day that treatment started until D26.

[2] = system: MDA‐MB‐231 metastasis model; test: Anti-metastasis evaluation, MDA-MB-231 metastasis model; format: in vivo, mouse; conditions: MDA-MB-231 metastasis model, DOX 5 mg kg^−1
From the text: as §1
For the TNBC metastasis model, two kinds of treatments were developed. […] After seven times of injections, continued observation of the mice was carried out. […] In vivo imaging system (IVIS Lumina XRMS Ш, PerkinElmer, USA) was utilized again to estimate the tumor metastasis at D26. Meanwhile, the mice were sacrificed and the main organs (heart, livers, spleen, lung, and kidney) were separated for histological analysis.

healthy ICR mice = test: Maximum tolerated dose / acute toxicity study
From the text: Animal survival of each group (n = 10, 5 female and 5 male) was continuously recorded for 14 days. Eventually, the evaluation and calculation of the median lethal dose (LD50) were completed with these collected data using the Bliss rule.

MDA‐MB‐231 cells = test: CCK-8 cell viability assay, MDA-MB-231; format: cell-based, human
Method: (§2) MDA‐MB‐231 cells were incubated in 96‐well plates for 24 h (1 × 10^4 cells per well). […] At the appointed time, 10 µL CCK‐8 solution was dropped into each well and further co‐incubated with treated cells for 2 h. The absorbance values at 450 nm were measured by an automated plate reader (iMark (168‐1130), Biorad, USA). The IC50 values were obtained from Microsoft Excel's FORECAST formula.

MCF‐7 cells = test: CCK-8 cell viability assay, MCF-7; format: cell-based, human; conditions: MCF-7, 24 h
Method: as §2
breast cancer cell line MCF-7 after 24 h incubation. Data are presented as means ±
standard deviations (n = 3).
(§3) (1 picture or pasted object on this page, not shown here)

MCF‐10A cells = test: CCK-8 cell viability assay, MCF-10A; format: cell-based, human; conditions: 24 h
Method: as §2
mammary epithelial cell line MCF-10A after 24 h incubation. Data are presented as
means ± standard deviations (n = 3).
as §3

[3] = Morphological transformation / particle size by DLS and TEM in PBS of different pH; format: physicochemical; conditions: TEM, PBS pH 6.5

With `COc1cccc2c1C(=O)c1c(O)c3c(c(O)c1C2=O)C[C@@](O)(C(=O)CO)C[C@@H]3O[C@H]1C[C@H](N)[C@H](O)[C@H](C)O1` [DOX, doxorubicin, reference compound] the “Death / body weight in tumor-bearing mice” value [1] was “cause death”, the “Survival in metastasis model” value [2] was “no mice survived up to day 14 (D14)” and the “Histological analysis of major organs” value (healthy ICR mice; 14 days after single dose, 40 mg kg^−1 DOX (or DOX equivalent)) was “disordered arrangement of myofilaments, glomerulosclerosis, and protein casts”. The “Blood biochemistry: ALT and ALP activity” value (healthy ICR mice; 14 days after single injection, with increasing dose, n = 3) was “gradually decreased”.

In the case of `COc1cccc2c1C(=O)c1c(O)c3c(c(O)c1C2=O)C[C@@](O)(C(=O)CO)C[C@@H]3O[C@H]1C[C@H](NC(=O)CCC(=O)N2CCC[C@H]2C(=O)N[C@@H](CC(C)C)C(=O)NCC(=O)O)[C@H](O)[C@H](C)O1` [DOX‐P3], the “IC50 with extended incubation time” value (MDA‐MB‐231 cells; MDA-MB-231, 36 and 48 h versus 24 h) is reported as “further reduced”.

In the case of `CC[C@H](C)[C@H](NC(=O)[C@@H]1CCCN1C(=O)[C@H](CC(N)=O)NC(=O)[C@H](CC(N)=O)NC(=O)[C@H](Cc1ccc(O)cc1)NC(=O)[C@H](Cc1c[nH]cn1)NC(=O)[C@H](CCCNC(=N)N)NC(=O)[C@@H](NC(=O)[C@H](CCCNC(=N)N)NC(=O)CNC(=O)CNC(=O)[C@H](CC(C)C)NC(=O)[C@@H]1CCCN1C(=O)CCC(=O)N[C@H]1C[C@H](O[C@H]2C[C@](O)(C(=O)CO)Cc3c(O)c4c(c(O)c32)C(=O)c2c(OC)cccc2C4=O)O[C@@H](C)[C@H]1O)C(C)C)C(=O)N[C@@H](Cc1c[nH]c2ccccc12)C(=O)N[C@@H](CCCNC(=N)N)C(=O)N[C@@H](CCC(N)=O)C(=O)N[C@@H](CCCNC(=N)N)C(=O)N[C@@H](Cc1ccc(O)cc1)C(N)=O` [DOX‐P18R] ({Doxorubicin(3'-N)-Suc}-PLGGRVRHYNNPIWRQRY-NH2), the “IC50 (cytotoxicity), in words” value (MDA‐MB‐231 cells; MDA-MB-231, 24 h) is reported as “particularly high IC50 values”, the “IC50 (cytotoxicity), in words” value (MCF‐7 cells) is reported as “particularly high IC50 values” and the “IC50 (cytotoxicity), in words” value (MCF‐10A cells) is reported as “particularly high IC50 values”.

For `CC[C@H](C)[C@H](NC(=O)[C@@H]1CCCN1C(=O)[C@H](CC(N)=O)NC(=O)[C@H](CC(N)=O)NC(=O)[C@H](Cc1ccc(O)cc1)NC(=O)[C@H](Cc1c[nH]cn1)NC(=O)[C@H](CCCNC(=N)N)NC(=O)CNC(=O)[C@H](CCCNC(=N)N)NC(=O)[C@@H](N)C(C)C)C(=O)N[C@@H](Cc1c[nH]c2ccccc12)C(=O)N[C@@H](CCCNC(=N)N)C(=O)N[C@@H](CCC(N)=O)C(=O)N[C@@H](CCCNC(=N)N)C(=O)N[C@@H](Cc1ccc(O)cc1)C(N)=O` [P15] (H-VRGRHYNNPIWRQRY-NH2), the “Morphology by TEM” value [3] was “fibroid aggregations”.
